Several values for one entry are separate records, joined by “and”; a condition that tells them apart may be missing. Identical values can stand only once.
Tests used:
[1] = test system: Monocotyledonous and dicotyledonous test plants; assay: Herbicidal action after emergence of the plants (post-emergence herbicidal action), Example B2; type: in vivo; details: postemergent application, 125 g/ha, 2- to 3-leaf stage, evaluated after 2-3 weeks, 100%=total damage
Protocol: (§1) Monocotyledonous and dicotyledonous test plants are sown in seed trays in standard soil. When the test plants are at the 2- to 3-leaf stage, the test compounds are applied by spraying in the form of an aqueous suspension (prepared from a wettable powder (Example F3, b) according to WO 97/34485) or in the form of an emulsion (prepared from an emulsifiable concentrate (Example F1, c) according to WO 97/34485) in a concentration of 125 g/ha. The test plants are then grown on in a greenhouse under optimum conditions. After a 2- to 3-week test period, the test is evaluated (100%=total damage to plant; 0%=no damage to plant).

[2] = test system: Monocotyledonous and dicotyledonous test plants; assay: Herbicidal action prior to emergence of the plants (pre-emergence action), Example B1; type: in vivo; details: preemergence application, 250 g/ha, evaluated after 4 weeks, 100%=total damage, 0%=no damage
Protocol: as §1, with “Immediately after sowing,” for “When the test plants are at the 2- to 3-leaf stage,”, “250” for “125”, “grown” for “grown on”, “4-week” for “2- to 3-week”, “plant; NC not evaluated).” for “plant).”

Row | SMILES | herbicidal damage, ABUTH [1] | herbicidal damage, AMARE [1] | herbicidal damage, CHEAL [1] | herbicidal damage, DIGSA [1] | herbicidal damage, SETFA [1] | herbicidal damage, SINAR [1] | herbicidal damage, VERPE [1] | herbicidal damage, XANST [1] | herbicidal damage, ABUTH [2] | herbicidal damage, AMARE [2] | herbicidal damage, BRAPL [2] | herbicidal damage, DIGSA [2] | herbicidal damage, ECHCG [2] | herbicidal damage, SETFA [2] | herbicidal damage, STEME [2] | herbicidal damage, VERPE [2]
1 | CCOc1nc2c(C(=O)C3=C(O)C4CCC(C4)C3=O)ccc(C(F)(F)F)n2n1 (centres unmarked) [2.209] | 80% | 90% | 80% | 80% | 80% | 80% | 80% | 80% | 100% | 100% | 90% | 80% | 70% | 80% | 70% | 30%
2 | CCOc1nnc2c(C(=O)C3=C(O)C4CCC(C4)C3=O)ccc(C(F)(F)F)n12 (centres unmarked) [Compound 1.211] | 70% | 100% | 80% | 70% | 80% | 80% | 80% | 80% | 30% | 100% | 100% | 70% | 70% | 30% | 80% | 90%
3 | CC(C)c1nnc2c(C(=O)C3=C(O)C(C)(C)C(=O)C(C)(C)C3=O)ccc(C(F)(F)F)n12 [Compound 5.4] | 80% | 90% and 70% | 80% | – | 50% | 70% and 80% | 80% and 90% | 70% and 90% | 100% | 100% | 100% | 60% | 40% | 30% | 100% | 100%
4 | Cc1nc2c(C(=O)C3=C(O)C4CCC(C4)C3=O)ccc(C(F)(F)F)n2n1 (centres unmarked) [2.4] | 80% | 80% | 80% | 70% | 70% | 80% | 30% | 80% | 70% | 60% | 10% | 30% | – | 20% | 60% | 10%
